# According to patent publication US10947546B2, “Methods and compositions for translational profiling and molecular phenotyping” (The Rockefeller University, priority 2008, dated 2021):
# What was measured:
# [1] = test system: GABAA receptor mIPSCs in BAC D2 striatopallidal neurons; experiment: Whole-cell voltage-clamp GABAergic mIPSC recording after 15-day cocaine treatment, BAC D2 neurons; format: in vivo, mouse; conditions: cocaine 15 days
# [2] = test system: GABAA receptor mIPSCs in BAC D1 striatonigral neurons; experiment: Whole-cell voltage-clamp GABAergic mIPSC recording after 15-day cocaine treatment, BAC D1 neurons
# [3] = test system: BAC D2 striatopallidal medium spiny neurons; experiment: 2PLSM dendritic Ca2+ imaging on focal S1P application (functional Gpr6 receptors), BAC D2 neurons in brain slices; format: cell-based, mouse; conditions: for Percent increase in fluorescence (ΔG/R), median: S1P puff 10 μM
# Description: Gpr6 encodes a G protein-coupled receptor for the lysophospholipid sphingosine 1-phosphate (S1P) (A. Ignatov, J. Lintzel, H. J. Kreienkamp, H. C. Schaller, Biochem Biophys Res Commun 311, 329-36 (Nov. 14, 2003)). In heterologous expression systems, S1P activation of Gpr6 receptors induces the release of Ca2+ from intracellular stores. […] To determine whether functional Gpr6 receptors were selectively expressed in striatopallidal neurons, BAC D2 striatopallidal or BAC D1 striatonigral medium spiny neurons (expressing soluble eGFP) were identified in brain slices and patch clamped (FIG. 30) (M. Day et al., Nat Neurosci 9, 251-9 (February, 2006)). Neurons were loaded with Alexa 594 (50 μM) to allow dendrites to be seen and with Fluo-4 (200 μM) to monitor intracellular Ca2+ concentration using 2-photon laser scanning microscopy (2PLSM). After allowing the dyes to equilibrate, neurons were imaged and a second pipette containing S1P (10 μM) was brought into close physical proximity to a dendrite, 60-80 microns from the soma (a and b). […] Nairn, P. Greengard, J Neurochem 72, 2015-21 (May, 1999)) and/or inhibition of adenylyl cyclase type 5 (AC5; Adcy5) (C.
# Striatonigral (BAC D1) or striatopallidal (BAC D2) neurons expressing soluble eGFP (S. Falcon, R. Person, Bioinformatics 23, 257-8 (2007)) in 275 μm thick corticostriatal slices were identified by somatic eGFP fluorescence. eGFP 2PLSM green signals (500-550 nm) were acquired from eGFP+ BAC Drd2 neurons using 810 nm excitation, while eGFP+ BAC Drd1 neurons required 900 nm excitation. eGFP+ MSNs were then patched using infrared-differential interference contrast (IR-DIC) video microscopy with a Hamamatsu C2400 Newvicon camera/controller system (Hamamatsu, Japan) and a 60X/0.9NA water-dipping lens. […] The pipette solution contained the following (in mM): 135 KMeSO4 (ICN Biomedicals Inc., Aurora, Ohio), 5 KCl, 10 HEPES, 2 MgATP, 0.2 Na2GTP, and 0.1 spermine, pH=7.25-7.3 with KOH, 270 mOsm/l. As measured in the bath, the pipette resistance was ˜4 MΩ. Seals were formed in voltage-clamp mode on the cell somas with series resistance >1 GΩ. After seal rupture in whole-cell configuration the series-resistance decreased to 10-15 MΩ. […] The thapsigargin was initially dissolved in DMSO at a concentration of 10 mM. This stock was then diluted 1000× in the internal recording solution. Following break in, the internal solution was allowed to approach diffusional equilibrium for at least 15 min prior to imaging. The cells were voltage clamped at −70 mV and monitored for somatic depolarization.
# For the duration of the recordings, 2PLSM green and red signals (570-620 nm) were acquired using 810 nm excitation with 90 MHz pulse repetition frequency and ˜250 fs pulse duration at the sample plane.
# [4] = test system: BAC D1 striatonigral medium spiny neurons; experiment: 2PLSM dendritic Ca2+ imaging on focal S1P application, BAC D1 neurons in brain slices; format: cell-based, mouse; conditions: S1P puff 10 μM, n=4
# Description: Gpr6 encodes a G protein-coupled receptor for the lysophospholipid sphingosine 1-phosphate (S1P) (A. Ignatov, J. Lintzel, H. J. Kreienkamp, H. C. Schaller, Biochem Biophys Res Commun 311, 329-36 (Nov. 14, 2003)). In heterologous expression systems, S1P activation of Gpr6 receptors induces the release of Ca2+ from intracellular stores. […] To determine whether functional Gpr6 receptors were selectively expressed in striatopallidal neurons, BAC D2 striatopallidal or BAC D1 striatonigral medium spiny neurons (expressing soluble eGFP) were identified in brain slices and patch clamped (FIG. 30) (M. Day et al., Nat Neurosci 9, 251-9 (February, 2006)). […]
# Striatonigral (BAC D1) or striatopallidal (BAC D2) neurons expressing soluble eGFP (S. Falcon, R. Person, Bioinformatics 23, 257-8 (2007)) in 275 μm thick corticostriatal slices were identified by somatic eGFP fluorescence. eGFP 2PLSM green signals (500-550 nm) were acquired from eGFP+ BAC Drd2 neurons using 810 nm excitation, while eGFP+ BAC Drd1 neurons required 900 nm excitation. eGFP+ MSNs were then patched using infrared-differential interference contrast (IR-DIC) video microscopy with a Hamamatsu C2400 Newvicon camera/controller system (Hamamatsu, Japan) and a 60X/0.9NA water-dipping lens. […] As measured in the bath, the pipette resistance was ˜4 MΩ. […] The cells were voltage clamped at −70 mV and monitored for somatic depolarization. […]
# DARPP-32 = experiment: Threonine 34 DARPP-32 phosphorylation after S1P treatment of striatal slices; format: cell-based; conditions: 5 minutes after S1P addition, 1.04±0.17 at 0 minutes, n=12
# [5] = test system: Ferritin heavy chain mRNA (Fth1); conditions: 100 μg/ml ferric ammonium citrate, 36 hours, HEK293T
# Description: Rapid immunoaffinity purification of polysomes was achieved from HEK293T cells transiently transfected with the eGFP-L10a transgene but not mock transfected cells. HEK293T cells transfected with eGFP-L10a were homogenized in lysis buffer. The solubilized and clarified lysate was loaded onto a linear density (20-50% w/w) gradient of sucrose and centrifuged for 2 hours at 4° C. using a Beckman SW41 rotor at 40,000 r. p. m. (200,000×g). 750 μl fractions were collected as absorbance at 254 nm was monitored with an ISCO UA-6 UV detector.
# HEK293T cells were transiently transfected (˜30% efficiency) with eGFP (mock) or eGFP-L10a constructs and grown in medium alone (no treatment, NT) or in medium supplemented with 100 μg/ml ferric ammonium citrate [pH 7.0] (iron) for 36 hours. […] (b) The post-mitochondrial supernatants of untreated or iron-treated cells were loaded onto linear sucrose gradients (20-50% w/w). After velocity sedimentation, fractions (direction of sedimentation noted by arrow) were collected while UV absorbance (254 nm) was being measured. […] Non-polysome and polysome gradient fractions were generated as indicated. To avoid Ferritin mRNAs associated with mRNPs, only heavier polysomes (with greater than 4 ribosomes) were included in the polysome fraction. […] (e) To determine if the translating ribosome affinity purification (TRAP) methodology could faithfully reflect the changes observed in c, a direct eGFP immunoprecipitation of post-mitochondrial supernatants (whole cell lysates, unfractionated) was performed.
# In some experiments, 20 ng of purified RNA was used to produce cDNA with a NuGEN WT Ovation kit (NuGEN Technologies, San Carlos, Calif.) and the resulting cDNA was purified and quantified. 10 ng of cDNA was used for each real-time gene expression assay. Applied Biosystems (Foster City, Calif.) TaqMan pre-designed gene expression assays were used, following the manufacturer's instructions and using an Applied Biosystems 7900 Sequence Detection System.
# Table 10). To provide an initial test of the data, quantitative PCR studies were carried out using independent biological BACarray D1 and D2 samples and a different cDNA amplification procedure (A. Alexa, J. Rahnenfuhrer, T. Lengauer, Bioinformatics 22, 1600-7 (2006)).
# [6] = iron treatment, range from replicates
compound,measurement,setting,value
COC(=O)[C@H]1[C@@H](OC(=O)c2ccccc2)C[C@@H]2CC[C@H]1N2C [cocaine],mean 10-90% rise times of mIPSCs,[1]; saline 0.65±0.007,0.64±0.010
same,mean mIPSC frequency,[1]; saline 0.72±0.05 Hz,0.78±0.07 Hz
same,mean number of channels per synapse (N),[1]; saline 33.8±2.7,33.0±1.6
same,number of small amplitude mIPSCs (<75 pA) in equal length records (7 min),[1]; saline 68.1±9.7,71.7±7.5
same,"number of receptors per synapse (N), representative variance-mean current plot",[1]; saline N=29,31
same,"unitary receptor conductance (g), representative variance-mean current plot",[1]; saline g=33 pS,29 pS
same,"mIPSC frequency, median","[2]; cocaine 20 mg/kg/day 15 days, saline median 0.82 Hz",1.03 Hz
same,mean 10-90% rise times of mIPSCs,"[2]; cocaine 15 days, saline 0.64±0.008",0.65±0.006
same,mean number of channels per synapse (N),"[2]; cocaine 15 days, saline 33.1±1.4",29.3±1.0
same,number of small amplitude mIPSCs (<75 pA) in equal length records (7 min),"[2]; cocaine 15 days, saline 79.4±8.2",104.2±6.3
same,"GABAA receptors (N) per synapse, representative variance-mean current plot","[2]; cocaine 15 days, saline N=33",27
same,"unitary receptor conductance (g), representative variance-mean current plot","[2]; cocaine 15 days, saline g=31 pS",30 pS
"CCCCCCCCCCCCC/C=C/[C@@H](O)[C@@H](N)COP(=O)(O)O [S1P, sphingosine 1-phosphate]","Percent increase in fluorescence (ΔG/R), median","[3]; BAC D2 medium spiny neurons, n=6",146%
same,"Percent increase in fluorescence (ΔG/R), median","[3]; thapsigargin loaded BAC D2 medium spiny neurons, n=4",4%
same,dendritic Ca2+ levels,"[3]; focal application of S1P 10 μM, clamped at −70 mV, BAC D2",consistently and reversibly increased
same,"Percent increase in fluorescence (ΔG/R), median",[4],17%
same,threonine 34 DARPP-32 phosphorylation,DARPP-32,0.58 normalized units
ferric ammonium citrate [iron],"iron-induced fold-change in Fth1 mRNA levels relative to Actb mRNA, polysome IP samples",[5]; IP from polysomes,2.01-2.43
same,"iron-induced fold-change in Fth1 mRNA levels relative to Actb mRNA, direct IP samples",[5]; IP from whole cell lysates,1.80-1.93
same,range of fold-change of Fth1 mRNA in non-polysome fraction,[5]; [6],0.16-0.22
same,range of fold-change of Fth1 mRNA in polysome fraction,[5]; [6],1.83-2.15
C/C=C(/C)C(=O)O[C@H]1C(C)=C2[C@H]([C@@H]1OC(=O)CCCCCCC)[C@@](C)(OC(C)=O)C[C@H](OC(=O)CCC)[C@@]1(O)[C@H]2OC(=O)[C@@]1(C)O [thapsigargin],response to S1P in BAC D2 striatopallidal neurons,"[3]; thapsigargin 10 μM in pipette, depletion of intracellular Ca2+ stores",abolished
